Laboratory results: US9078915B2, “Prostate carcinogenesis predictor” (University of South Florida, priority 2007, dated 2015)

Key:
[1] = test system: LNCaP cells; assay: Cell viability, trypan blue exclusion assay, LNCaP; type: cell-based, human
Procedure: (§1) The siRNAs complexes were made according to the following procedures: 60 μl of siRNAs (10 μM stock solution) were combined with 60 μl of tranfection reagent and incubated at room temperature for 30 minutes to make the siRNA complex. The siRNA complex was then added to twenty four hours post plated cells giving a final concentration of 50 nM of siRNA complex in complete media. The cells were incubated with either siRNA-A, or PKC-ι, PKC-ζ, and PKC-δ siRNA (50 nM for RWPE-1, 100 nM for LNCaP and 150 nM for DU-145 respectively). Following treatments, the cells were washed with phosphate buffered saline (PBS), trypsinized and resuspended in 2-3 ml of PBS.
(§2) Cell viability was quantified using trypan blue exclusion assay and the numbers of unstained cells were counted as mentioned above. Three independent experiments were carried out for each treatment with controls. Cell viability was determined relative to vehicle control using the mean and SD for each time point. Statistical determination by Student's T test using Minitab program (Minitab Inc. State College, Pa.).
(§3) Subconfluent RWPE-1 (A), LNCaP (B) and DU-145 (C) cells (2.5×10^5) were treated with PKC-ι siRNA (50 nM for RWPE-1, 100 nM for LNCaP and 150 nM for DU-145) complex from 24-72 h as described in “Materials and Methods.” At the indicated time, the viable cells were counted using trypan blue exclusion assay and a hematocyometry. Three independent experiments were performed and the mean of the viable cells and SD were plotted. After titrating PKC-ι siRNA concentrations from 50-100 nM, we used an optimal concentration of PKC-ι siRNA (50 nM) and control siRNA to suppress PKC-ι expression. […]
(§4) Cell lysates (50 μg) of an exponentially growing DU-145 cells were immunoprecipitated with either rabbit polyclonal PKC-ι antibody and/or IKKα/β rabbit polyclonal antibody. […] After incubation for 24-72 hours with ICA-1 (0.1 μM-60 μM), both the control cells and ICA-1 treated cells were trypsinized and viable cells were counted using trypan blue exclusion assay and a hematocytometry. […]

[2] = test system: DU-145 cells; assay: Cell viability, trypan blue exclusion assay, DU-145; type: cell-based, human
Procedure: as §1, §2, §3, §4

[3] = target: T1, PKC-ι (Homo sapiens, UniProt P41743); assay: Kinase assay: phosphorylation of IKKα/β by immunoprecipitated PKC-ι from DU-145 cells; type: biochemical; conditions: ICA-1 100 nM, co-immunoprecipitated PKC-ι and IKKα/β
T1 construct: Cell lysates (50 μg) of an exponentially growing DU-145 cells were immunoprecipitated with either rabbit polyclonal PKC-ι antibody; endogenous in cells; host or cells: DU-145 (whole cell lysate, immunoprecipitate on anti-rabbit IgG-agarose beads)
T1 sequence (P41743 1-596): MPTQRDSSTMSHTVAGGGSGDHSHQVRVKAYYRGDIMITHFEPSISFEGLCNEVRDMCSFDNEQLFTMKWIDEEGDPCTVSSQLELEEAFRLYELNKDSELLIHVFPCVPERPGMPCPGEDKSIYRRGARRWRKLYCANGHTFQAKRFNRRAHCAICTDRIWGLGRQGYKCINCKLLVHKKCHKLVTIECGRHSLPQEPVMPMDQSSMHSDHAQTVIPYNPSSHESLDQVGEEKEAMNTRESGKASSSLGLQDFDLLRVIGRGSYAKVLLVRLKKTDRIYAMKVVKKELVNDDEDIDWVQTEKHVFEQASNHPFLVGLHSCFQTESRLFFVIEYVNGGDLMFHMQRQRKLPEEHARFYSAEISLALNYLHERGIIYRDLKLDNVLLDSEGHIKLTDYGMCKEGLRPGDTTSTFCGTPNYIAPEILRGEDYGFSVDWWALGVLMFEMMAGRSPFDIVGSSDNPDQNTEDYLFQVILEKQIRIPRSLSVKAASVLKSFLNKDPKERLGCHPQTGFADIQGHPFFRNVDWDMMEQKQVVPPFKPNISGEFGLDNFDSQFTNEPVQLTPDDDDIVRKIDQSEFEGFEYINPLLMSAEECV
Procedure: DU-145 cells (3.75×10^5) were grown as a monolayer in T75 flasks overnight. Whole cell lysates of (100 μg) were immunoprecipitated as follows: cell lystaes (50 μg) were pre-cleared for 30 min at 4° C. with anti-rabbit IgG-agarose beads (1:1 v/v, 10 μl) (catalog number A8914; Sigma Aldrich) and incubated with 5 μg of PKC-ι rabbit polyclonal antibody and/or IKKα/β rabbit polyclonal antibody (5 μg) overnight at 4° C. and then a further 1 h with anti-rabbit IgG-agarose beads (1:1 v/v, 50 μl). The immunoprecipitated samples were incubated with kinase buffer (50 μl of 3.03 mg/10 ml ATP, 30 mM of Tris p.H 7.4, 50 μl of 5 μg phosphotidylserine) at 30° C. in a water bath for 5 minutes. The reaction was terminated by placing the samples in ice. The PKC-ι inhibitor 1H-imidazole-4-carboxamide, 5-amino-1-[2,3-dihydroxy-4-[(phosphonooxy)methyl]cyclopentyl]-, [1R-(1a, 2b, 3b, 4a)] (ICA-1; 100 nM) was synthesized by Southern Research Institute (Birmingham, Ala.). […]
as §4

NC(=O)c1ncn(C2CC(COP(=O)(O)O)C(O)C2O)c1N (stereo not drawn) [ICA-1, 1H-imidazole-4-carboxamide, 5-amino-1-[2,3-dihydroxy-4-[(phosphonooxy)methyl]cyclopentyl]-, [1R-(1a, 2b, 3b, 4a)]]
inhibition of cell proliferation ([1]; ICA-1 0.1 μM-60 μM, 24-72 hours): does not significantly (p>0.05 for both cell lines) inhibit
cell numbers at low concentration ([1]; ICA-1 0.1-0.5 μM): increase in cell numbers
cell growth at high concentration ([1]; ICA-1 10-60 μM): inhibition of cell growth
inhibition of cell proliferation ([2]; DU-145, ICA-1 0.1 μM-60 μM, 24-72 hours): does not significantly (p>0.05 for both cell lines) inhibit
cell numbers at low concentration ([2]; DU-145, ICA-1 0.1-0.5 μM): increase in cell numbers
cell growth at high concentration ([2]; DU-145, ICA-1 10-60 μM): inhibition of cell growth
phosphorylation of IKKα/β (Ser176/180) by PKC-ι [3]: inhibited
